Literature values, collected in US20250364101A1, “Dabigatran Dosing” (Closed Loop Medicine Ltd, priority 2023, published 2025).
Read-outs that look alike come from different tables or passages of the source.

Tests used:
[1] = not given; remark: listed apart in the source
[2] = not given; remark: listed apart in the source

| Change in Drug Level Exposure (AUC), increase (Amiodarone) | Change in Drug Level Exposure (AUC) (CrCl = 30, relative to median CrCl of 69) | Change in Drug Level Exposure (AUC) (CrCl = 50, relative to median CrCl of 69) | Change in Drug Level Exposure (AUC), decrease (PPIs) | Change in Drug Level Exposure (AUC), increase (Verapamil) | increase in distribution volume (Vd) (above 80 kg) | Change in Drug Level Exposure (AUC), increase (females compared to men) | effect of low weight on Cmax (low weight) | Change in Drug Level Exposure (AUC), increase (patients with HF) | accumulation of the drug ([1]; daily doses of approximately 150-300 mg) | elimination via the kidney as share of total clearance ([1]; in vivo) | remainder going into the faeces ([1]; oral) | relationship between maximal plasma level and dose administered ([1]; single dose) | effect of food on total absorption ([1]; with food) | risk of intracranial bleeds ([2]; compared with adjusted-dose warfarin) | SMILES | Change in Drug Level Exposure (AUC), increase (South Asians compared to other ethnicities) | Change in activity: bleeding (coadministration of Asprin, clopidogrel) | Change in Drug Level Exposure (AUC), increase per year of age (older compared to 72 yr) | outcome compared with warfarin ([2]; patients with nonvalvular AF) |
| --- | --- | --- | --- | --- | --- | --- | --- | --- | --- | --- | --- | --- | --- | --- | --- | --- | --- | --- | --- |
| 12% increase | 1.8 fold | 1.3 fold | ~13% decrease | 23% increase | 0.8 % per kg | ~9% increase in females compared to men | will increase | ~7% increase in patients with HF | approximately 1.7 fold | 80% | ~90% | linear relationship | does not affect | – | [H]/N=C(/N)c1ccc(NCc2nc3cc(C(=O)N(CCC(=O)O)c4ccccn4)ccc3n2C)cc1 [dabigatran] | ~26% increase in South Asians compared to other ethnicities | Coadministration will increase chance of bleeding | 0.41% increase per year older compared to 72 yr % per year | – |
| – | – | – | – | – | – | – | – | – | – | – | – | – | – | small reduction | CCCCCCOC(=O)NC(=N)c1ccc(NCc2nc3cc(C(=O)N(CCC(=O)OCC)c4ccccn4)ccc3n2C)cc1 [Dabigatran etexilate] | – | – | – | superior to warfarin |
